Data published in patent US20080280838A1, “Composition Containing Ginsenoside F1 and Egcg for Preventing Skin Damage” (Amorepacific Corporation, priority 2004, published 2008).

Columns and labels:
HaCaT cells = assay: MTT-reduction assay: antiapoptotic effect against UV-induced apoptosis in HaCaT cells; type: cell-based, Human; conditions: 60 mJ/cm^2 UVB; for UV-caused apoptotic cell population compared with untreated control cells: 24 hours after UV irradiation
Protocol: (§1) Human keratinocyte HaCaT cell line was provided by Dr. N. E. Fusenig (Deutsches Krebsforschungszentrum(DKFZ), Heidelberg, Germany) and cultured in DMEM (Dulbecco's modified Eagle's medium, Gibco 1210-0038) supplemented with 10% fetal bovine serum. Cultures were incubated at 37° C., in humidified air with 5% CO2.
Cell lines cultured in Step 1 were treated with trypsin to give a single-cell suspension and seeded into a 6-well microplate at 2×10^5 cells per well, then cultured for 24 hours. Subsequently, the culture medium was refreshed with serum-free DMEM and cells were cultured for another 24 hours. The microplate was then treated with 2 μM ginsenoside F1; 10 μM EGCG; a combination of 2 μM ginsenoside F1 and 10 μM EGCG; 5 μM ginsenoside F1; and 50 μM EGCG in separate wells.
For reference, ginsenoside F1 was dissolved in 100% ethanol at a 1/1000-fold concentration to the medium and EGCG (Sigma) was dissolved in dimethyl sulfoxide (DMSO) at a 1/1000-fold concentration to the medium, and then added at the required amount to the culture mediums.
After 24-hour treatment of each test sample, each microplate was washed with phosphate buffered saline (PBS) and exposed to 60 mJ/cm^2 of UVB in the presence of PBS. PBS was then removed and the culture medium was refreshed with a medium containing each compound at the corresponding concentration. As a control, untreated cells were cultured in the same way.
24 hours after UV irradiation, to the microplates treated with each compound or untreated was added 3-(4,5-dimethyl thiazol-2-yl)-2,5-diphenyltetrazolium bromide (MTT, Sigma) solution, and then the cells were cultured at 37° C. for 4 hours. DMSO was added and dissolved completely. The optical density (OD) of formazan formed at 540 nm was measured using an ELISA reader (Thermo Max, Molecular Devices Co.). Cell viability in each test group was evaluated as a relative value, considering OD of untreated control cells as 100%.

Bcl-2 = assay: Western-blot analysis of UV-induced down-regulation of Bcl-2 expression in HaCaT cells; type: cell-based, Human; conditions: 60 mJ/cm^2 UVB
Protocol: as §1
Cell lines cultured in Step 1 were treated with trypsin to give a single-cell suspension and seeded into 6-well microplates at […] per well, then cultured for 24 hours. Subsequently, the culture medium was refreshed with serum-free DMEM and cells were cultured for another 24 hours. The microplates were then treated with 2 μM ginsenoside F1; 10 μM EGCG; a combination of 2 μM ginsenoside F1 and 10 μM EGCG; 5 μM ginsenoside F1; and 50 μM EGCG, respectively. Ginsenoside F1 was dissolved in 100% ethanol at a 1/1000-fold concentration to the medium and EGCG (Sigma) was dissolved in DMSO at a 1/1000-fold concentration to the medium. […]
24 hours after UV irradiation, cells treated with each compound or untreated were washed with PBS and harvested by treating with trypsin. […] Supernatants were collected by centrifugation at 15,000×g for 10 minutes at 4° C. and protein concentrations were determined using BIO-Rad Protein Dye Reagent™. […] The bands on the film were scanned using PowerLook 2100 XL (UMAX) and analyzed with ImageMaster 2D Elite software (Amersham Biosciences).

| Structure (SMILES) | UV-caused apoptotic cell population compared with untreated control cells (HaCaT cells; 10 μM EGCG alone) | antiapoptotic effect relative to combined treatment (2 μM ginsenoside F1 and 10 μM EGCG) (HaCaT cells; 50 μM EGCG alone) | Bcl-2 expression compared with the untreated control group (Bcl-2; 10 μM EGCG alone) | UV-caused apoptotic cell population compared with untreated control cells (HaCaT cells; 2 μM ginsenoside F1 alone) | antiapoptotic effect relative to combined treatment (2 μM ginsenoside F1 and 10 μM EGCG) (HaCaT cells; 5 μM ginsenoside F1 alone) | Bcl-2 expression compared with the untreated control group (Bcl-2; 2 μM ginsenoside F1 alone) |
| --- | --- | --- | --- | --- | --- | --- |
| O=C(O[C@@H]1Cc2c(O)cc(O)cc2O[C@@H]1c1cc(O)c(O)c(O)c1)c1cc(O)c(O)c(O)c1 [EGCG, (−)epigallocatechin-3-gallate] | no difference | similar | no difference |  |  |  |
| CC(C)=CCC[C@](C)(O[C@@H]1O[C@H](CO)[C@@H](O)[C@H](O)[C@H]1O)[C@H]1CC[C@]2(C)[C@@H]1[C@H](O)C[C@@H]1[C@@]3(C)CC[C@H](O)C(C)(C)[C@@H]3[C@@H](O)C[C@]12C [ginsenoside F1, 20-O-β-D-glucopyranosyl-20(S)-protopanaxatriol] |  |  |  | no difference | similar | no difference |
